From paper PMC11788324, “4,6-Disubstituted pyrimidine-based microtubule affinity-regulating kinase 4 (MARK4) inhibitors: synthesis, characterization, in-vitro activity and in-silico studies” (Frontiers in Pharmacology, 2025)

Key:
MARK4 [1] = biological target: T1, MARK4 (Homo sapiens, UniProt Q96L34); test: MARK4 ATPase (malachite green) enzyme inhibition assay; assay type: biochemical; conditions: MARK4 5 μM, 1 hour at 25°C, triplicates
T1 sequence (Q96L34 1-752): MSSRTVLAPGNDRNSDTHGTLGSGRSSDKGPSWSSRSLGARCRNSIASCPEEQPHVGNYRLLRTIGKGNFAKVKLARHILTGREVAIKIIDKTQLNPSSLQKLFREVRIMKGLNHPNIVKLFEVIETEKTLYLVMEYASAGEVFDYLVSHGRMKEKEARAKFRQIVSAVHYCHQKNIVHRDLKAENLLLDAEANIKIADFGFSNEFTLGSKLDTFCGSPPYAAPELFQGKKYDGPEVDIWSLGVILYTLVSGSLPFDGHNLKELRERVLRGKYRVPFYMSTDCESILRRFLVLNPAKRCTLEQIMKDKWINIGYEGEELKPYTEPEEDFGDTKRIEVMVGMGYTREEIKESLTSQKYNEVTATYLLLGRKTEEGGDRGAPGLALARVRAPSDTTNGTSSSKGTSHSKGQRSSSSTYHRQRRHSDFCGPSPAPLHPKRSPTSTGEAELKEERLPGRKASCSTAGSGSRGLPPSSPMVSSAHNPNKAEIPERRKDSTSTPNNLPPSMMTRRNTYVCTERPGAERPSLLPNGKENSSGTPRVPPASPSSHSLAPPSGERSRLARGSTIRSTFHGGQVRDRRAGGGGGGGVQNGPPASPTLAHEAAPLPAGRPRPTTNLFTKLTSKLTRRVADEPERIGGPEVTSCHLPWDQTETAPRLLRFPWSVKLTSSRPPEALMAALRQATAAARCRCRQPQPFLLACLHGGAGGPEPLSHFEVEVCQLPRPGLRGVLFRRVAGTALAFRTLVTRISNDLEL
Protocol: The inhibitory potential of the synthesized compounds against MARK4 was analysed using the malachite green based enzyme inhibition assay. The malachite green kinase inhibition assay is a colorimetric technique designed to assess kinase activity by detecting the release of inorganic phosphate (Pi) during phosphorylation. When a kinase transfers a phosphate group from ATP to its substrate, Pi is generated as a byproduct. The malachite green reagent interacts with Pi to produce a green-colored complex, which can be quantified using a spectrophotometer. This assay is modified to evaluate enzyme inhibition by measuring the reduction in Pi release in the presence of potential inhibitors. […] The protein’s highest activity, MARK4 (ligand-free), was utilised as a reference, and various ligand concentrations were added to determine the IC50 value. […] Finally 96 well plates were filled with 100 μL of the reaction mixture, which was then scanned at 620 nm using a multiscan ELISA reader. […]
MARKs, or microtubule-affinity regulating kinases, are a group of serine/threonine kinases found in mammals and other organisms ([Naz et al., 2013]). […] In the present study, we selected MARK4 as the target and assessed our compounds against it. […] Following this, attempts have been made to collect the fluorescence quenching of MARK4 in the presence of the best inhibitor (14). […]

MARK4 [2] = biological target: T1, MARK4; test: Fluorescence quenching of MARK4; assay type: binding; conditions: data not included
Text: MARKs, or microtubule-affinity regulating kinases, are a group of serine/threonine kinases found in mammals and other organisms ([Naz et al., 2013]). These kinases play a critical role in phosphorylating microtubule-associated proteins, which then go on to regulate important processes like cell cycle progression and cytoskeletal dynamics. These kinases are quite abundant in the human brain and are known to be key players in the development and progression of various diseases including cancer and ADs ([Alam et al., 2023]). Despite their high importance, there has been limited research on the development of synthetic small molecules (inhibitors) against MARK4 ([Li et al., 2020]; [Voura et al., 2022]). In the present study, we selected MARK4 as the target and assessed our compounds against it. The kinase inhibitory potential of the compounds against MARK4 was examined using an ATPase inhibition assay ([Yousuf et al., 2015]; [Yousuf et al., 2022]). […] Following this, attempts have been made to collect the fluorescence quenching of MARK4 in the presence of the best inhibitor (14). […] The rationale behind the behaviour is currently under investigation.

[3] = parameters: method as in Pant et al., 2024; conditions: compared with donepezil; ref Pant et al., 2024; cited from earlier work

| Structure (SMILES) | IC50 (MARK4 [1]) | fluorescence quenching of MARK4 emission (MARK4 [2]) | neuroprotective effects [3] |
| --- | --- | --- | --- |
| COc1ccc(S(=O)(=O)N2CCN(c3cc(-c4ccsc4)ncn3)CC2)c(OC)c1 [Compound 9, 4-(4-((2,4-Dimethoxyphenyl)-sulfonyl)-piperazin-1-yl)-6-(thiophen-3-yl)-pyrimidine] | 13 ± 0.63 µM |  |  |
| O=S(=O)(c1cccc2ccccc12)N1CCN(c2cc(-c3ccsc3)ncn2)CC1 [Compound 14, 4-(4-(Naphthalen-1-ylsulfonyl)-piperazin-1-yl)-6-(thiophen-3-yl)-pyrimidine] | 7.52 ± 0.33 µM | did not show appreciable quenching |  |
| Clc1ccc(Cc2ccnc(CCN3CCCCC3)n2)cc1 [a] |  |  | neuroprotective effects better than donepezil |
